Here are results for 1 compound from patent US20240100183A1, “COMPOSITIONS COMPRISING MOLECULES FOR CYSTIC FIBROSIS TREATMENT” (UNiversity of Iowa Research Foundation, priority 2020, published 2024).

By solubility is commonly meant how much of the substance goes into solution per volume. By log P is commonly meant the decadic logarithm of the partition coefficient of the neutral form, usually between octanol and water. As a reminder, the half-life is the time in which the quantity being followed falls by half.

Each structure is given as a SMILES string. Values after ≈ are worked out from the molar mass of the structure shown. Values joined by “and” are separate entries in the source; they are usually repeats but may differ in a detail not shown here. Identical values can stand only once. Like-named read-outs stand apart in the source and are kept apart here.

The nature of series [1]: Phase solubility of ivacaftor in cyclodextrin solutions. It is filed as physicochemical. Particulars: for solubility at 3 days: aqueous with cosolvent or surfactant or cyclodextrin, thermodynamic from solid. The protocol: Excess amounts of powdered ivacaftor were suspended in different concentrations of different types of CD's (up to […] in the case of βCD, and up to […] in the case of αCD, γCD, and HPβCD). The suspensions were shaken at 3000 rpm at room temperature for 3 days. Then, samples were collected and filtered, and the concentration of ivacaftor was determined using HPLC, as described below. An Agilent HPLC workstation series 1100 (Agilent Technologies, Santa Clara, CA) was used for the analysis. The column used was Waters Symmetry C18 5 μm (4.6×150 mm), and the mobile phase consisted of 6:4 acetonitrile: water with 0.1% v/v trifluoroacetic acid (TFA) at a flow rate of 1 ml/min (at 25±2° C.). Detection was carried out using an Agilent Diode array detector (DAD) at 309 nm.

A short description of series [2]: Ivacaftor solubility in the release medium. It counts as physicochemical. Particulars: release medium (polysorbate 80 in DPBS), aqueous with cosolvent or surfactant or cyclodextrin; 0.4% v/v polysorbate 80 in 1×DPBS, 37° C.
For series [3] the following is noted: cited from earlier work; for aqueous (water) solubility: room temperature.
The conditions of series [4]: oral 150 mg twice daily; cited from earlier work.

`CC(C)(C)c1cc(C(C)(C)C)c(NC(=O)c2c[nH]c3ccccc3c2=O)cc1O` [Ivacaftor, N-(2,4-Di-tert-butyl-5-hydroxyphenyl)-4-oxo-1,4-dihydroquinoline-3-carboxamide]: the “solubility in βCD relative to aqueous solubility” value in series [1] (10 μM βCD) is listed as “about 24 times”. Also, in series [1] (25 μM γCD), the “solubility in γCD relative to aqueous solubility” value was “about 10 times”. In series [1] (50 μM HPβCD), the “solubility in HPβCD relative to aqueous solubility” value is recorded as “about 1000 times”. Besides, in series [1] (50 μM HPβCD vs 10 μM βCD), the “solubility in HPβCD relative to maximum βCD concentration” value was “about 40 times”. For the same compound, the “solubility in HPβCD relative to αCD and γCD” value in series [1] (50 μM of each CD) was 100-150 times. The solubility at 3 days worked out at 50 µg/mL (≈ 127 µM) in series [1] (HPβCD solution, 50 μM HPβCD, room temperature, 3 days shaking, read-out: ivacaftor solubility in HPβCD solution); 1.2 µg/mL (≈ 3.06 µM) in series [1] (βCD solution, 10 μM βCD, read-out: ivacaftor solubility in βCD solution); 0.5 µg/mL (≈ 1.27 µM) in series [1] (γCD solution, 25 μM γCD, read-out: ivacaftor solubility in γCD solution). Further, in series [1] (same concentration (10 μM)), the “solubility in βCD relative to αCD and γCD” value was 5-6 times and 5-8 times. Besides, in series [2], the solubility is 272 µg/mL (≈ 692 µM). In addition, the entries for the “log P” value in series [3] and in series [3] (listed as IVA) were 3.13 and 3.3, respectively. The “aqueous (water) solubility” value in series [3] is “about 0.05 μg/ml”; in series [3] (listed as IVA), less than 0.05 µg/mL. Further, in series [4], the half-life is 9 to 12 h.
